One data set addresses T1, hPTP1B1-400 (Homo sapiens, UniProt P18031).
T1 sequence (P18031 1-400): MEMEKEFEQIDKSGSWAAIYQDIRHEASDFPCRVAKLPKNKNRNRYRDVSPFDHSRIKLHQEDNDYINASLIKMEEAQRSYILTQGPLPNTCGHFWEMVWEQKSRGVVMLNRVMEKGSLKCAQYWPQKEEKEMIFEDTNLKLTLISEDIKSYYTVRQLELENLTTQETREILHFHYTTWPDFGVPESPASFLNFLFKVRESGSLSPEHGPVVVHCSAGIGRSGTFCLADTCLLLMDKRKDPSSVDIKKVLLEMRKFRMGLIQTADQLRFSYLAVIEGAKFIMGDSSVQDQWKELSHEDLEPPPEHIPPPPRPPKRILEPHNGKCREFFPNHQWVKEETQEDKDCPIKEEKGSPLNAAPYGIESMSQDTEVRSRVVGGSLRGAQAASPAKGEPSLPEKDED
Put plainly: PTP1B inhibition assay (spectrophotometric, 4-nitrophenyl phosphate). The format is biochemical. The procedure: The inhibitory activity was determined as a percentage compared to the blank (Buffer) according to the following equation: %InhibitionPTP1B=1−A405s/A405b×100%, (1) where A405(s) is the ΔA of the sample (At20 − At0), A405(b) is the ΔA of the blank obtained in the same manner as that of the sample. Using the data obtained, the enzyme inhibition curve was plotted, for which the average percentage of inhibition was plotted as a function of the inhibitor concentration.

The test system of another data set is ICR mice. Particulars: male, mouse, in vivo, 14 days. As to the method: The potential acute toxicity of compound 6 was determined according to the Lorke’s method ([Lorke, 1983]). The evaluation was performed following the Official Mexican Norm for Laboratory Animal Care and Use (NOM-062-ZOO-1999), with international conventional codes for laboratory animal use, and approved by the Institutional Committee for Care and Use of Laboratory Animals (CICUAL-FQ), Facultad de Química, UNAM (FQ/CICUAL/440/21). […]. At the end of the experiments, the mice were euthanized by hypoxia in a CO2 chamber.
Compound 6 was fed by an intragastric route in two independent phases. In each case, 12 mice were divided into four groups (n = 3). In the first stage, the animals were treated with 10, 100, and 1,000 mg/kg; in the second phase, 1,600, 2,900, and 5,000 mg/kg were administered. The control animals were fed 0.05% Tween 80® in saline solution. The weight of the animals was measured daily for 14 days at each stage. At the end of the test, all animals were euthanized to obtain the lungs, heart, kidneys, and liver to detect macroscopic organ injury.

Data set [1] deals with T2, PTP1B (Homo sapiens, UniProt P18031).
T2 sequence (P18031 1-400): T1 sequence (P18031 1-400)
In words: Kinetic analysis of PTP1B inhibition. The format is biochemical. As to the method:
The conditions for preparing reagents (enzyme and substrate), incubation, and analysis of results were the same as that described in Section 2.1 ([Jiménez-Arreola et al., 2020]; [Díaz-Rojas et al., 2021]). Additional steps in the methodology are described below.
To characterize the type of inhibition exerted by 1, 3, and 6 on PTP1B, the hydrolysis of 4-NP at the sub-saturating state and increasing concentrations of each compound was measured. […] The compound concentration yielding 50% activity inhibition was interpolated from the results by fitting into a general inhibition model. The resulting set of activities was fitted globally using the non-linear regression algorithm of Levenberg–Marquardt as implemented in the Gnuplot ([Williams et al., 2017]). Each group was fitted to the kinetic equations for linear competitive, linear uncompetitive, linear non-competitive (classic), linear mixed type, parabolic competitive, parabolic uncompetitive, and parabolic non-competitive inhibition mechanisms. The best fit was ascertained by the reduced chi-squared (χ^2) value, residual distribution, and uncertainty in the parameter estimates. The best description of the inhibition data for compounds 1, 3, and 6 was obtained with Eq. 2, Eq. 3, and Eq. 4, respectively, where VMAX, KM, and KIcu, KIC, and KIU are the maximum velocity, Michaelis constant for the substrate 4-NP, and inhibition constants for each type of inhibition, respectively. v0=VMAX4NP/KM1+I/KIcu+4NP1+I/KIcu, (2) v0=VMAX4NP/KM1+I/KIC+4NP1+I/KIU, (3) v0=VMAX4NP/KM1+I/KIC+I^2/KIC2^2+4NP. (4)

Data set [2] deals with PTP1B. More on the design: method as in Lantz et al., 2010; Kumar et al., 2020. The settings on record: known inhibitors of PTP1B; ref Lantz et al., 2010; Kumar et al., 2020; cited from earlier work.

Several values for one entry are separate records, joined by “and”; a condition that tells them apart may be missing. Equal values may be shown once. Read-outs that look alike come from different tables or passages of the source.

Results on three molecules are retold here after publication PMC10644722, “Discovery of inhibitors of protein tyrosine phosphatase 1B contained in a natural products library from Mexican medicinal plants and fungi using a combination of enzymatic and in silico methods**” (Frontiers in Pharmacology, 2023).

As usually defined, the pIC50 is the negative decadic logarithm of the IC50, by convention in mol/L.

With `CC=CC1=CC=CC(=C2C(=O)CNC2=O)O1` [Compound 6, E/Z-vermelhotin], the IC50 at hPTP1B1-400 (DoseResp model fit, Origin 8.0, axis C (mM), read-out: LOGx0 of the IC50 curve) is 0.0796 ± 0.0957 mM; on hPTP1B1-400 (enzyme 66 nM, 4-NP 0.125 mM, Tris-HCl pH 6.8, 20 min, room temperature, read-out: IC50) it was 0.0796 ± 0.0001 mM; at hPTP1B1-400 (negative log of the IC50 in Molar, read-out: pIC50 (converted)), 0.0794 mM. In addition, on hPTP1B1-400 (absolute pIC50 difference against ursolic acid), the “ΔA, activity difference between UA and the compound” value was 0.6 and 0.56. Also, the LC50 result with ICR mice is listed as “higher than 5,000 mg/kg”. For the same molecule, on PTP1B [1] (double-reciprocal plots, global nonlinear fit), the type of inhibition result is “competitive parabolic inhibition”. Moreover, the VMAX on PTP1B [1] (maximum velocity, nonlinear fit, substrate 4-NP) worked out at 24.7 mM/min. Moreover, the Ki came out at 31 µM at PTP1B [1] (mixed type (Eq. 3) or parabolic competitive model (Eq. 4), read-out: KIC) and 20 µM at PTP1B [1] (parabolic competitive model (Eq. 4), second inhibitor molecule, read-out: KIC2).

As to `Cc1cc(-c2c3ccccc3c(Br)c3sc(C)c(C)c23)cc(C)c1O[C@H](Cc1ccccc1)C(=O)O` [E, ertiprotafib], in the data set with PTP1B [2], the pIC50 is 4.70.

For `CC(C)[C@@H](CC[C@@H](C)[C@H]1CC[C@H]2[C@@H]3[C@H](O)C[C@H]4C[C@@H](NCCCNCCCCNCCCN)CC[C@]4(C)[C@H]3CC[C@]12C)OS(=O)(=O)O` [T, trodusquemine], the pIC50 in the data set on PTP1B [2] is 6.0.
